Test results reported in ChEMBL document CHEMBL1141496, “Biphenylsulfonyl-thiophene-carboxamidine inhibitors of the complement component C1s” (Bioorg Med Chem Lett, 2008).
≈ marks a conversion by molar mass, not a printed value.

Legend:
[1] = biological target: T1, Complement C1s subcomponent (Homo sapiens, UniProt P09871); experiment: Inhibition of Complement C1s subcomponent
T1 sequence (P09871 whole entry): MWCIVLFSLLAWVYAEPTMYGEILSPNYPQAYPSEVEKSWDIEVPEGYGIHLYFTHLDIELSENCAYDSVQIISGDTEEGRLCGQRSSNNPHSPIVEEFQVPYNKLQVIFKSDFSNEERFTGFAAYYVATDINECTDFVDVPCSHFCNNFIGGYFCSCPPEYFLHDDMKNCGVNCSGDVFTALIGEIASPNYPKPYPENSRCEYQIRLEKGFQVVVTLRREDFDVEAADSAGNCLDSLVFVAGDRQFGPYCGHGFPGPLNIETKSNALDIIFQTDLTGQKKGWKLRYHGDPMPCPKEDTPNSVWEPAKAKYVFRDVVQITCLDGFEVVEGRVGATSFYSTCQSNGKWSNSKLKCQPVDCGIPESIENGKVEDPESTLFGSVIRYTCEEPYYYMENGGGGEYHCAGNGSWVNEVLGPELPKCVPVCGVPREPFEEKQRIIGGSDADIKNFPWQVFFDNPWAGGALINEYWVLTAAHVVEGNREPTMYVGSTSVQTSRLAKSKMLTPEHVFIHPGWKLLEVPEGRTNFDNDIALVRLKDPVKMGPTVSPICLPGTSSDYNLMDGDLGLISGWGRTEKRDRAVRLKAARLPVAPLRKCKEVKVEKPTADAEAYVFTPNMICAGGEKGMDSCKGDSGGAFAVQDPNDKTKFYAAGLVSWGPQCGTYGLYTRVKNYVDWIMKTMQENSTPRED

[2] = Aqueous solubility at physiological pH; type: physicochemical
[3] = Volume of distribution in rat at 2 mg/kg, iv; type: ADME, organism-based; parameters: dose 2 mg/kg, route intravenous; details: in vivo
[4] = Clearance in rat at 2 mg/kg, iv; type: ADME, organism-based; parameters: dose 2 mg/kg, route intravenous; details: in vivo
[5] = Half life in rat at 2 mg/kg, iv; type: ADME, organism-based; parameters: dose 2 mg/kg, route intravenous; details: in vivo
hERG (KCNH2) = hERG (KCNH2) (Homo sapiens, UniProt Q12809); experiment: Inhibition of human ERG at 10 uM by patch clamp assay
hERG (KCNH2), sequence (Q12809 whole entry): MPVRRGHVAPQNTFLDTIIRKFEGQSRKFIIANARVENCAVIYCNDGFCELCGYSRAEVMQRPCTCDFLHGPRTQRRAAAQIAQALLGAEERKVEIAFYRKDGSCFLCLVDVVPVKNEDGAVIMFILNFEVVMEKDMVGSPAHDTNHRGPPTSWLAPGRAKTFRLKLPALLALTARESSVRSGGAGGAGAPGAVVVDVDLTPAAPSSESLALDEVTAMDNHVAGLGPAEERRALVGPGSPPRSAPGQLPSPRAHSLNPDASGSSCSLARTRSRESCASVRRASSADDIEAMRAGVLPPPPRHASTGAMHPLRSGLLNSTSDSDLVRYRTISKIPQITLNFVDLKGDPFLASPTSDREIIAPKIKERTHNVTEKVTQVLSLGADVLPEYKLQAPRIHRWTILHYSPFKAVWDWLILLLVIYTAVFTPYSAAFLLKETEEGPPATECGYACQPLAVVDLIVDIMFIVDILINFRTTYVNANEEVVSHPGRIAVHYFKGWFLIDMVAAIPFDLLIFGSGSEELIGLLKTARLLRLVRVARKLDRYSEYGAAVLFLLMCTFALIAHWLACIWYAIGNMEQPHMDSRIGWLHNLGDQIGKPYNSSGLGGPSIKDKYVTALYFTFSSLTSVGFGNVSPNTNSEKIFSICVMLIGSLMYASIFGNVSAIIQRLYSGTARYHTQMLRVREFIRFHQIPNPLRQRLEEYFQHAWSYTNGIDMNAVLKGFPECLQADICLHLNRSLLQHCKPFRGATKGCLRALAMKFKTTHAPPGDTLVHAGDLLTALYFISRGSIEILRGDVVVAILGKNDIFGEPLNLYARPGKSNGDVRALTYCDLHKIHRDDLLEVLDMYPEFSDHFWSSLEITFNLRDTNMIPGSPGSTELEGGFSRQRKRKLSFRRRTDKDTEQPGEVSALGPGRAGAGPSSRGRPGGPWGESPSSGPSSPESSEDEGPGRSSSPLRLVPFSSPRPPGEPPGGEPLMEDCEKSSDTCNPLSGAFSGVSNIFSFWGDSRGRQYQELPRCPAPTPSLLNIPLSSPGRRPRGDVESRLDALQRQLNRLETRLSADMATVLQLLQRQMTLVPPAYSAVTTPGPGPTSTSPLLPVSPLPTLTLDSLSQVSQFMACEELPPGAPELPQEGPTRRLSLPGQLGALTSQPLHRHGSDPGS

Q: With C=Cc1ccccc1-c1cccc(S(=O)(=O)c2cc(C(=N)N)sc2SC)c1 as the compound, how does the Ki [1] read?
A: 140 nM

Q: What does the source list for CSc1sc(C(=N)N)cc1S(=O)(=O)c1cccc(-c2c(C)cccc2NC(=O)CS(C)(=O)=O)c1?
A: solubility [2]: 43 µM (≈ 23.1 µg/mL); Ki [1]: 120 nM

Q: Which Ki [1] does the source give for CSc1sc(C(=N)N)cc1S(=O)(=O)c1cccc(-c2cccc(O)c2)c1 here?
A: 150 nM

Q: Which Ki [1] does the source give for COc1cccc(-c2cccc(S(=O)(=O)c3cc(C(=N)N)sc3SC)c2)c1 here?
A: 490 nM

Q: With CSc1sc(C(=N)N)cc1S(=O)(=O)c1cccc(-c2c(C)cccc2NC(=O)CCCS(C)(=O)=O)c1 as the compound, how does the Vd [3] read?
A: 2.03 L/kg

Q: And the solubility [2]?
A: 35 µM (≈ 19.8 µg/mL)

Q: What about the clearance [4] of the same compound?
A: 130 mL/min/kg

Q: And the Ki [1]?
A: 14 nM

Q: And the half-life [5]?
A: 1.8 h

Q: With CSc1sc(C(=N)N)cc1S(=O)(=O)c1cccc(-c2ccccc2O)c1 as the compound, how does the Ki [1] read?
A: 460 nM

Q: For CSc1sc(C(=N)N)cc1S(=O)(=O)c1cccc(-c2ccccc2Cl)c1, which Ki [1] is on record?
A: 40 nM

Q: For CSc1sc(C(=N)N)cc1S(=O)(=O)c1cccc(Br)c1, which Ki [1] is on record?
A: 360 nM

Q: For COc1ccccc1-c1cccc(S(=O)(=O)c2cc(C(=N)N)sc2SC)c1, which Ki [1] is on record?
A: 610 nM

Q: Which Ki [1] does the source give for CSc1sc(C(=N)N)cc1S(=O)(=O)c1cccc(-c2cccc(C)c2)c1 here?
A: 1850 nM

Q: For CSc1sc(C(=N)N)cc1S(=O)(=O)c1cccc(-c2cccc(C)n2)c1, which Vd [3] is on record?
A: 15 L/kg

Q: What about the solubility [2] of the same compound?
A: 22 µM (≈ 8.88 µg/mL)

Q: And the inhibition at 10 µM (hERG (KCNH2))?
A: 66%

Q: What about the clearance [4] of the same compound?
A: 283 mL/min/kg

Q: What about the Ki [1] of the same compound?
A: 40 nM

Q: What about the half-life [5] of the same compound?
A: 2 h

Q: What does the source list for CSc1sc(C(=N)N)cc1S(=O)(=O)c1cccc(-c2c(C)cccc2NC(=O)CCCCC(=O)O)c1?
A: solubility [2]: 40 µM (≈ 21.8 µg/mL); Ki [1]: 42 nM

Q: For CSc1sc(C(=N)N)cc1S(=O)(=O)c1cccc(-c2ccc(O)cc2)c1, which Ki [1] is on record?
A: 190 nM

Q: With CSc1sc(C(=N)N)cc1S(=O)(=O)c1cccc(-c2ccccc2CO)c1 as the compound, how does the Ki [1] read?
A: 120 nM

Q: Which Ki [1] does the source give for CSc1sc(C(=N)N)cc1S(=O)(=O)c1cccc(-c2c(C)cccc2N)c1 here?
A: 20 nM

Q: For COc1ccc(-c2cccc(S(=O)(=O)c3cc(C(=N)N)sc3SC)c2)cc1, which Ki [1] is on record?
A: 350 nM

Q: With CSc1sc(C(=N)N)cc1S(=O)(=O)c1cccc(-c2c(C)cccc2NC(=O)NCCCCCC(=O)O)c1 as the compound, how does the Vd [3] read?
A: 2.65 L/kg

Q: And the solubility [2]?
A: 39 µM (≈ 22.4 µg/mL)

Q: What about the inhibition at 10 µM (hERG (KCNH2)) of the same compound?
A: 5.8%

Q: And the clearance [4]?
A: 228 mL/min/kg

Q: And the Ki [1]?
A: 22 nM

Q: And the half-life [5]?
A: 0.2 h

Q: Which Ki [1] does the source give for CSc1sc(C(=N)N)cc1S(=O)(=O)c1cccc(-c2c(C)cccc2CO)c1 here?
A: 50 nM

Q: For CSc1sc(C(=N)N)cc1S(=O)(=O)c1cccc(-c2ccc(C)cc2)c1, which Ki [1] is on record?
A: 250 nM

Q: Which Ki [1] does the source give for CSc1sc(C(=N)N)cc1S(=O)(=O)c1cccc(-c2c(C)cccc2C(=O)O)c1 here?
A: 150 nM

Q: Which Ki [1] does the source give for CSc1sc(C(=N)N)cc1S(=O)(=O)c1cccc(-c2ccccc2C)c1 here?
A: 30 nM

Q: Which inhibition at 10 µM (hERG (KCNH2)) does the source give for CSc1sc(C(=N)N)cc1S(=O)(=O)c1cccc(-c2c(C)cccc2NC(=O)NCCc2nn[nH]n2)c1 here?
A: 1%

Q: What about the Ki [1] of the same compound?
A: 64 nM

Q: With CSc1sc(C(=N)N)cc1S(=O)(=O)c1cccc(-c2ccccc2)c1 as the compound, how does the Ki [1] read?
A: 260 nM
